# Patent US5840690A, “Regulation of cell proliferation and differentation using peptides” (priority 1995, dated 1998)
# Non-standard residues stand in square brackets, D forms with d. Residues, ends and D or L forms follow the SMILES beside them. Nle = CCCC[C@H](N)C(=O)O
# Columns and labels:
# psoriasis = conditions: provided either orally or topically; cited from earlier work
# [1] = system: cultured human keratinocytes; assay: Keratinocyte culture: counts of total cells, basal cells and cornified envelopes; type: cell-based; conditions: for total number of basal cells: one week of dosing; for proliferation and terminal differentiation of cultured human keratinocytes (conclusion from the results): peptide by itself
# Procedure: Keratinocytes were grown in culture as follows. NIH 3T3 cells were plated at 0.5×10^5 cells per 35-mm tissue-culture dish, and two days later were lethally irradiated with a cobalt-60 source (5000 rads). Keratinocytes were obtained from neonatal foreskin after overnight trypsinization at 4° C. and treatment with 0.02% EDTA. Keratinocytes were plated in 2 ml of serum-free medium per dish on the lethally irradiated 3T3 cells. Each experiment was performed on primary or secondary keratinocyte cultures obtained from different skin samples.
# In addition, 1,25-(OH)2 D3 was tested, alone and in combination with PTH (7-34), and PTH (1-34) and PTH (7-34) were tested together.
# Beginning at one week in culture, groups of triplicate plates of keratinocytes were incubated with the aforementioned compounds or vehicle alone. After one week of dosing, the medium was removed from each culture and centrifuged, and the pellet was resuspended for the counting of the desquamated floater cells. A hemacytometer was used to count the different cell types under a phase-contrast microscope. The attached cells were then trypsinized for 30-40 min with 0.1 EDTA and 0.1% trypsin and then neutralized with medium. The keratinocytes were pelleted and resuspended in a known volume of medium. Duplicate aliquots were taken for counting the basal (small, rounded) and squamous (larger, irregular-shaped, flattened) cells. The remaining cells were pelleted and treated with 10 mM Tris-HCl (pH 7.4) with 1% beta-mercaptoethanol and 1% sodium dodecyl sulfate (SDS) at room temperature for 10 min. Only cells with cornified envelopes were present after this treatment.
# Each culture was thus evaluated for its total cell content, number of basal cells, and cornified envelopes, as described above.
# [2] = system: wounds made through the skin with a 6 mm dermal biopsy punch; assay: In vivo skin punch assay; set-up: species or system Sprague-Dawley rats; conditions: rats, 2.0 μg topically in normal saline, immediately after biopsy and each day for 3 days, FIG. 8
# Procedure: Male Sprague-Dawley rats were anesthetized by intraperitoneal injection of sodium pentobarbital, their dorsal skin shaved, and wounds made through the skin with a 6 mm dermal biopsy punch. Immediately after the biopsy, and each subsequent day for 3 days, groups of rats received topically 2.0 μg of human PTH (1-34) in normal saline or human PTH (7-34) in normal saline; a control group received normal saline without peptide. Four rats from each group were killed by asphyxiation in a chamber of carbon dioxide, and the extent of wound healing was evaluated as follows. Wounds were photographed with the wound surface perpendicular to the axis of the lens. After development of the film, wound images were projected on to paper at a fixed distance, traced with a pencil, and cut out with sharp scissors. The relative sizes of the wounds were assessed by weighing the cut-out paper tracings. Percent healing was calculated from the average decrease in wound area for each group.
# [3] = system: PTH-stimulated biologic responses; conditions: cited from earlier work
# [4] = system: PTH-mediated elevation of plasma calcium; conditions: cited from earlier work
# [5] = system: canine adenylate cyclase system; conditions: cited from earlier work
# [6] = system: hair obtained from human subjects; assay: In vitro hair growth assay; type: cell-based
# From the text: Candidate peptides may be screened for their ability to stimulate hair growth as follows. […] Hair is sampled from 4 sites of the scalp (frontal, occipital, temporal, and nuchal) and the following body areas: beard, axilla, pubic, chest, forearm, and leg, using the method described by van Scott et al. (J. Invest. Derm. 29: 197, 1957). Immediately after plucking, the hairs are placed in chilled Krebs-Ringer phosphate buffer, pH 7.4. Growing (anagen) and resting (telogen) hairs are differentiated either by gross examination or under low microscopic magnification. Generally, 2 to 4 anagen hairs and 10 to 30 telogen hairs are incubated in duplicate, in 2 ml. centrifuge tubes, in a total volume of 1 ml of incubation mixture consisting of Krebs-Ringer phosphate buffer, pH 7.4, glucose (9 mM), and candidate peptide; control incubation mixture lacks peptide. Samples are incubated with shaking at 37° C. in an air atmosphere. […]
# DNA content is determined by the method of Kissane and Robins (J. Biol. Chem. 233: 184, 1958) as modified by Santoianni and Ayala (J. Invest. Derm. 45: 99, 1965). […] Fluorescence is asssayed on an Aminco-Bowman Spectrofluorometer with the excitation wavelength set at 396 nm and the emission wavelength at […]. […] Routinely, standards containing 0.1, 0.4, 0.8, 1.2, 1.6, and 3.2 μg of DNA, and a blank are read with the samples.
# [7] = peptide alone at 10^-8 M and 10^-7 M
# [8] = PTH (7-34) together with the agonist
compound,measurement,setting,value
"C=C1/C(=C\C=C2/CCC[C@]3(C)[C@@H]([C@H](C)CC[C@@H](O)C(C)C)CC[C@@H]23)C[C@@H](O)C[C@@H]1O [1,24-dihydroxyvitamin D3]",value in the treatment of psoriasis,psoriasis,of value in the treatment of psoriasis
"CC[C@H](C)[C@H](NC(=O)[C@H](CCC(=O)O)NC(=O)[C@H](CO)NC(=O)[C@@H](NC(=O)[C@@H](N)CO)C(C)C)C(=O)N[C@@H](CCC(N)=O)C(=O)N[C@@H](CC(C)C)C(=O)N[C@@H](CCSC)C(=O)N[C@@H](Cc1c[nH]cn1)C(=O)N[C@@H](CC(N)=O)C(=O)N[C@@H](CC(C)C)C(=O)NCC(=O)N[C@@H](CCCCN)C(=O)N[C@@H](Cc1c[nH]cn1)C(=O)N[C@@H](CC(C)C)C(=O)N[C@@H](CC(N)=O)C(=O)N[C@@H](CO)C(=O)N[C@@H](CCSC)C(=O)N[C@@H](CCC(=O)O)C(=O)N[C@@H](CCCNC(=N)N)C(=O)N[C@H](C(=O)N[C@@H](CCC(=O)O)C(=O)N[C@@H](Cc1c[nH]c2ccccc12)C(=O)N[C@@H](CC(C)C)C(=O)N[C@@H](CCCNC(=N)N)C(=O)N[C@@H](CCCCN)C(=O)N[C@@H](CCCCN)C(=O)N[C@@H](CC(C)C)C(=O)N[C@@H](CCC(N)=O)C(=O)N[C@@H](CC(=O)O)C(=O)N[C@H](C(=O)N[C@@H](Cc1c[nH]cn1)C(=O)N[C@@H](CC(N)=O)C(=O)N[C@@H](Cc1ccccc1)C(=O)O)C(C)C)C(C)C [PTH (1-34), Parathyroid Hormone (1-34), Human]",growth of human cultured keratinocytes,[1]; 10^-7 and 10^-8 M,inhibits growth
same,terminal differentiation of human cultured keratinocytes,[1]; 10^-7 and 10^-8 M,induces terminal differentiation
same,"total number of cornified envelopes, percent of control","[1]; compound alone, FIGS. 6 and 7","increased, in a dose-dependent manner"
same,total number of basal cells,[1]; [7],significantly decreased
same,proliferation and terminal differentiation of cultured human keratinocytes (conclusion from the results),[1],biologically effective in inhibiting the proliferation of cultured human keratinocytes and inducing terminal differentiation
same,wound healing (percent healing from decrease in wound area),[2],biologically effective in enhancing wound healing
same,wound healing (percent healing from decrease in wound area),[2]; listed as human PTH (1-34),enhance wound healing
"CCCC[C@H](NC(=O)[C@H](CO)NC(=O)[C@H](CO)NC(=O)[C@H](CC(C)C)NC(=O)[C@H](Cc1c[nH]cn1)NC(=O)[C@H](CCCCN)NC(=O)CNC(=O)[C@H](CC(C)C)NC(=O)[C@H](CC(N)=O)NC(=O)[C@H](Cc1c[nH]cn1)NC(=O)[C@H](CCCC)NC(=O)[C@H](Cc1ccccc1)NC(=O)[C@H](CCC(N)=O)NC(=O)[C@@H](NC(=O)[C@H](CCC(=O)O)NC(=O)[C@@H](N)CO)[C@@H](C)CC)C(=O)N[C@@H](CCC(=O)O)C(=O)N[C@@H](CCCNC(=N)N)C(=O)N[C@H](C(=O)N[C@@H](CCC(=O)O)C(=O)N[C@@H](Cc1c[nH]c2ccccc12)C(=O)N[C@@H](CC(C)C)C(=O)N[C@@H](CCCNC(=N)N)C(=O)N[C@@H](CCCCN)C(=O)N[C@@H](CCCCN)C(=O)N[C@@H](CC(C)C)C(=O)N[C@@H](CCC(N)=O)C(=O)N[C@@H](CC(=O)O)C(=O)N[C@H](C(=O)N[C@@H](Cc1c[nH]cn1)C(=O)N[C@@H](CC(N)=O)C(=O)N[C@@H](Cc1ccc(O)cc1)C(N)=O)C(C)C)C(C)C [PTH (3-34), [Nle^8, Nle^18, Tyr^34] bovine (3-34) PTH amide] (H-SEIQF[Nle]HNLGKHLSS[Nle]ERVEWLRKKLQDVHNY-NH2)","total number of cornified envelopes, percent of control","[1]; compound alone, FIGS. 6 and 7","increased, in a dose-dependent manner"
same,proliferation of keratinocytes (agonist),[1]; concentration not given,inhibits proliferation
same,terminal differentiation of keratinocytes (agonist),[1]; concentration not given,induces terminal differentiation
same,total number of basal cells,[1]; peptide alone at 10^-10 and 10^-8 M,significantly decreased
same,proliferation and terminal differentiation of cultured human keratinocytes (conclusion from the results),[1],have the same effect as PTH (1-34)
same,PTH-stimulated biologic responses in vitro,[3],can be inhibited
"CSCC[C@H](NC(=O)[C@H](CO)NC(=O)[C@H](CO)NC(=O)[C@H](CC(C)C)NC(=O)[C@H](Cc1c[nH]cn1)NC(=O)[C@H](CCCCN)NC(=O)CNC(=O)[C@H](CC(C)C)NC(=O)[C@H](CC(N)=O)NC(=O)[C@H](Cc1c[nH]cn1)NC(=O)[C@H](CCSC)NC(=O)[C@@H](N)Cc1ccccc1)C(=O)N[C@@H](CCC(=O)O)C(=O)N[C@@H](CCCNC(=N)N)C(=O)N[C@H](C(=O)N[C@@H](CCC(=O)O)C(=O)N[C@@H](Cc1c[nH]c2ccccc12)C(=O)N[C@@H](CC(C)C)C(=O)N[C@@H](CCCNC(=N)N)C(=O)N[C@@H](CCCCN)C(=O)N[C@@H](CCCCN)C(=O)N[C@@H](CC(C)C)C(=O)N[C@@H](CCC(N)=O)C(=O)N[C@@H](CC(=O)O)C(=O)N[C@H](C(=O)N[C@@H](Cc1c[nH]cn1)C(=O)N[C@@H](CC(N)=O)C(=O)N[C@@H](Cc1ccc(O)cc1)C(N)=O)C(C)C)C(C)C [PTH (7-34), [Tyr^34] bovine PTH (7-34) amide]","keratinocyte antiproliferative and terminal differentiation-inducing activities of 1,25(OH)2 D3","[1]; PTH (7-34) against 1,25(OH)2 D3",blocks
same,antiproliferative and differentiation-inducing activities of PTH (1-34) and CFF (1-34) (antagonist),[1]; PTH (7-34) against PTH (1-34) and CFF (1-34),blocks
same,"response to 1,25(OH)2 D3 (cell numbers)","[1]; PTH (7-34) at 10^-7 M co-incubated with 1,25(OH)2 D3 at 10^-8 M",significantly decreased the response
same,effect of PTH (1-34) and CFF (1-34) on total number of cells and total number of basal cells,[1]; PTH (7-34) co-incubated with hPTH (1-34) or CFF (1-34),inhibited the effect
same,"antiproliferative and differentiation-inducing activities of each of 1,25(OH)2 D3, PTH (1-34), and CFF (1-34) (conclusion)",[1]; [8],can block
same,"effect of 1,25(OH)2 D3, PTH (1-34), and CFF (1-34) on cornified envelope development",[1]; [8],inhibited the effect
same,"total number of cornified envelopes, percent of control",[1]; [7],no effect
same,total number of basal cells,[1]; [7],no effect
same,proliferation and terminal differentiation of cultured human keratinocytes (conclusion from the results),[1],substantially no effect
same,PTH-like agonist activity,"[4]; rat, in vivo",devoid of PTH-like agonist activity
same,PTH-mediated elevation of plasma calcium,[4]; thyroparathyroidectomized rats in vivo,can inhibit
same,wound healing (percent healing from decrease in wound area),[2],biologically effective in enhancing wound healing
"Parathyroid Hormone (1-34), Rat [Rat PTH (1-34)]",activity relative to bovine PTH (1-34),[5],2-4 fold
same,activity relative to human PTH (1-34),[5],8-10 fold
"human PTH (7-34): human PTH (7-34), applied topically in normal saline in the skin punch assay; stimulates hair growth in vitro (LMHNLGKHLNSMERVEWLRKKLQDVHNF; Parathyroid hormone; UniProt P01270 38-65, looked up, fragment)",wound healing (percent healing from decrease in wound area),[2],enhance wound healing
same,hair growth in vitro,[6],stimulates hair growth
